Measured values from patent US20170326125A1, “MULTISUBSTITUTED AROMATIC COMPOUNDS AS INHIBITORS OF THROMBIN” (VERSEON CORPORATION, priority 2016, published 2017).

Each molecule was assayed against T1, Human thrombin (Homo sapiens, UniProt P00734) (assay: Inhibition of the protease activity of thrombin (chromogenic substrate S-2238)). Conditions: inhibition of the protease activity of thrombin; class symbols a/b/c.
T1 construct: purchased Haematologic Technologies Inc
Type: biochemical
Experimental: Compounds described herein can be assayed, by a variety of methods known in the art and described herein, for inhibition of biological activity, e.g., protease activity, of a variety of proteins, e.g., thrombin.
The thrombin activity reported herein (e.g., Table A) was obtained as follows. Human thrombin was obtained from Haematologic Technologies Inc. The chromogenic
Thrombin was assayed in buffer containing 0.05 M Tris (pH 7.4), 0.015 M NaCl and 0.01% PEG-8000. The final concentration of enzyme used was 3 nM thrombin. […] All assays were performed in 96-well microtiter plates at room temperature (RT). […] Inhibitor IC50 values were determined by adding test compound as ten point, three-fold serial dilutions in buffer solution, as known in the art. The plate was read at 10 minutes after substrate addition. The IC50 was calculated by plotting the percent (%) inhibition against compound concentration and fitting the data to a constrained four parameter sigmoidal curve, as known in the art.

IC50 | Structure (SMILES)
100 to 1000 nM | CCC(=O)n1nc(-c2cccs2)nc1NCc1ccc(F)cc1 [Cmpd 83, 1-(5-[(4-fluorophenyl)methyl]amino-3-(thiophen-2-yl)-1H-1,2,4-triazol-1-yl)propan-1-one]
> 1000 nM | CCC(=O)n1nc(-c2ccccc2)cc1NCc1ccc(F)cc1 [Cmpd 84, 1-(5-[(4-fluorophenyl)methyl]amino-3-phenyl-1H-pyrazol-1-yl)propan-1-one]
> 1000 nM | CCC(=O)n1nc(-c2ccccc2)c(C)c1NCc1ccc(F)cc1 [Cmpd 85, 1-(5-[(4-fluorophenyl)methyl]amino-4-methyl-3-phenyl-1H-pyrazol-1-yl)propan-1-one]
< 100 nM | CCC(=O)n1nc(-c2cccnc2)nc1SCc1ccc(F)cc1 [Cmpd 86, 1-(5-[(4-fluorophenyl)methyl]sulfanyl-3-(pyridin-3-yl)-1H-1,2,4-triazol-1-yl)propan-1-one]
< 100 nM | COc1ccc(CNc2nc(-c3ccccn3)nn2C(=O)C(C)C)cc1 [Cmpd 88, 1-(5-[(4-methoxyphenyl)methyl]amino-3-(pyridin-2-yl)-1H-1,2,4-triazol-1-yl)-2-methylpropan-1-one]
< 100 nM | COc1ccc(CNc2nc(-c3ccccn3)nn2C(=O)Cc2ccccc2)cc1 [Cmpd 89, 1-(5-[(4-methoxyphenyl)methyl]amino-3-(pyridin-2-yl)-1H-1,2,4-triazol-1-yl)-2-phenylethan-1-one]
< 100 nM | COc1ccc(CNc2nc(-c3ccccn3)nn2C(=O)CC(C)C)cc1 [Cmpd 90, 1-(5-[(4-methoxyphenyl)methyl]amino-3-(pyridin-2-yl)-1H-1,2,4-triazol-1-yl)-3-methylbutan-1-one]
100 to 1000 nM | COc1ccc(CNc2nc(-c3ccccn3)nn2C(=O)CCc2ccccc2)cc1 [Cmpd 91, 1-(5-[(4-methoxyphenyl)methyl]amino-3-(pyridin-2-yl)-1H-1,2,4-triazol-1-yl)-3-phenylpropan-1-one]
< 100 nM | CCCC(=O)n1nc(-c2ccccn2)nc1NCc1ccc(OC)cc1 [Cmpd 92, 1-(5-[(4-methoxyphenyl)methyl]amino-3-(pyridin-2-yl)-1H-1,2,4-triazol-1-yl)butan-1-one]
< 100 nM | CCC(=O)n1nc(-c2ccccn2)nc1NCc1ccc(OC)cc1 [Cmpd 93, 1-(5-[(4-methoxyphenyl)methyl]amino-3-(pyridin-2-yl)-1H-1,2,4-triazol-1-yl)propan-1-one]
< 100 nM | COc1ccc(CNc2nc(-c3cccnc3)nn2C(=O)C(C)(C)C)cc1 [Cmpd 94, 1-(5-[(4-methoxyphenyl)methyl]amino-3-(pyridin-3-yl)-1H-1,2,4-triazol-1-yl)-2,2-dimethylpropan-1-one]
< 100 nM | COc1ccc(CNc2nc(-c3ccncc3)nn2C(=O)C(C)C)cc1 [Cmpd 95, 1-(5-[(4-methoxyphenyl)methyl]amino-3-(pyridin-4-yl)-1H-1,2,4-triazol-1-yl)-2-methylpropan-1-one]
< 100 nM | COc1ccc(CNc2nc(-c3ccncc3)nn2C(=O)Cc2ccccc2)cc1 [Cmpd 96, 1-(5-[(4-methoxyphenyl)methyl]amino-3-(pyridin-4-yl)-1H-1,2,4-triazol-1-yl)-2-phenylethan-1-one]
< 100 nM | COc1ccc(CNc2nc(-c3ccncc3)nn2C(=O)CC(C)C)cc1 [Cmpd 97, 1-(5-[(4-methoxyphenyl)methyl]amino-3-(pyridin-4-yl)-1H-1,2,4-triazol-1-yl)-3-methylbutan-1-one]
> 1000 nM | COc1ccc(CNc2nc(-c3ccncc3)nn2C(=O)CCc2ccccc2)cc1 [Cmpd 98, 1-(5-[(4-methoxyphenyl)methyl]amino-3-(pyridin-4-yl)-1H-1,2,4-triazol-1-yl)-3-phenylpropan-1-one]
< 100 nM | CCCC(=O)n1nc(-c2ccncc2)nc1NCc1ccc(OC)cc1 [Cmpd 99, 1-(5-[(4-methoxyphenyl)methyl]amino-3-(pyridin-4-yl)-1H-1,2,4-triazol-1-yl)butan-1-one]
100 to 1000 nM | CCC(=O)n1nc(-c2ccncc2)nc1NCc1ccc(OC)cc1 [Cmpd 100, 1-(5-[(4-methoxyphenyl)methyl]amino-3-(pyridin-4-yl)-1H-1,2,4-triazol-1-yl)propan-1-one]
> 1000 nM | O=C(c1cccc2c1OC(F)(F)O2)n1nc(-c2ccccc2)nc1NCc1ccc(F)cc1 [Cmpd 101, 1-[(2,2-difluoro-2H-1,3-benzodioxol-4-yl)carbonyl]-N-[(4-fluorophenyl)methyl]-3-phenyl-1H-1,2,4-triazol-5-amine]
< 100 nM | O=C(c1cccc2c1OCCO2)n1nc(-c2ccccc2)nc1NCc1ccc(F)cc1 [Cmpd 102, 1-[(2,3-dihydro-1,4-benzodioxin-5-yl)carbonyl]-N-[(4-fluorophenyl)methyl]-3-phenyl-1H-1,2,4-triazol-5-amine]

IC50 | Structure (SMILES)
> 1000 nM | COc1ccc(C(=O)n2nc(-c3ccccc3F)cc2NCc2ccccc2)c(N)c1 [Cmpd 103, 1-[(2-amino-4-methoxyphenyl)carbonyl]-N-benzyl-3-(2-fluorophenyl)-1H-pyrazol-5-amine]
< 100 nM | COc1ccc(C(=O)n2nc(-c3ccccn3)nc2NCc2ccccc2)c(N)c1 [Cmpd 104, 1-[(2-amino-4-methoxyphenyl)carbonyl]-N-benzyl-3-(pyridin-2-yl)-1H-1,2,4-triazol-5-amine]
100 to 1000 nM | COc1ccc(C(=O)n2nc(-c3ccccn3)cc2NCc2ccccc2)c(N)c1 [Cmpd 105, 1-[(2-amino-4-methoxyphenyl)carbonyl]-N-benzyl-3-(pyridin-2-yl)-1H-pyrazol-5-amine]
> 1000 nM | Cc1ccc(C(=O)n2nc(-c3ccccc3F)cc2NCc2ccccc2)c(N)c1 [Cmpd 106, 1-[(2-amino-4-methylphenyl)carbonyl]-N-benzyl-3-(2-fluorophenyl)-1H-pyrazol-5-amine]
< 100 nM | Cc1ccc(C(=O)n2nc(-c3ccccn3)nc2NCc2ccccc2)c(N)c1 [Cmpd 107, 1-[(2-amino-4-methylphenyl)carbonyl]-N-benzyl-3-(pyridin-2-yl)-1H-1,2,4-triazol-5-amine]
100 to 1000 nM | Cc1ccc(C(=O)n2nc(-c3ccccn3)cc2NCc2ccccc2)c(N)c1 [Cmpd 108, 1-[(2-amino-4-methylphenyl)carbonyl]-N-benzyl-3-(pyridin-2-yl)-1H-pyrazol-5-amine]
< 100 nM | Nc1ccccc1C(=O)n1nc(-c2ccccn2)nc1NCc1ccccc1 [Cmpd 109, 1-[(2-aminophenyl)carbonyl]-N-benzyl-3-(pyridin-2-yl)-1H-1,2,4-triazol-5-amine]
< 100 nM | CSc1nc(-c2cccs2)nn1C(=O)c1ccccc1Cl [Cmpd 110, 1-[(2-chlorophenyl)carbonyl]-5-(methylsulfanyl)-3-(thiophen-2-yl)-1H-1,2,4-triazole]
< 100 nM | O=C(c1ccccc1Cl)n1nc(-c2ccccn2)nc1NCc1ccc(F)cc1 [Cmpd 111, 1-[(2-chlorophenyl)carbonyl]-N-[(4-fluorophenyl)methyl]-3-(pyridin-2-yl)-1H-1,2,4-triazol-5-amine]
< 100 nM | O=C(c1ccccc1Cl)n1nc(-c2ccncc2)nc1NCc1ccc(F)cc1 [Cmpd 112, 1-[(2-chlorophenyl)carbonyl]-N-[(4-fluorophenyl)methyl]-3-(pyridin-4-yl)-1H-1,2,4-triazol-5-amine]
< 100 nM | O=C(c1ccccc1Cl)n1nc(-c2cccs2)nc1NCc1ccc(F)cc1 [Cmpd 113, 1-[(2-chlorophenyl)carbonyl]-N-[(4-fluorophenyl)methyl]-3-(thiophen-2-yl)-1H-1,2,4-triazol-5-amine]
> 1000 nM | O=C(c1ccccc1Cl)n1nc(-c2ccccc2)cc1NCc1ccc(F)cc1 [Cmpd 114, 1-[(2-chlorophenyl)carbonyl]-N-[(4-fluorophenyl)methyl]-3-phenyl-1H-pyrazol-5-amine]
100 to 1000 nM | COc1ccccc1C(=O)n1nc(-c2ccccn2)cc1NCc1cccs1 [Cmpd 116, 1-[(2-methoxyphenyl)carbonyl]-3-(pyridin-2-yl)-N-(thiophen-2-ylmethyl)-1H-pyrazol-5-amine]
< 100 nM | COc1ccccc1C(=O)n1nc(-c2ccccn2)nc1NCc1ccsc1 [Cmpd 117, 1-[(2-methoxyphenyl)carbonyl]-3-(pyridin-2-yl)-N-(thiophen-3-ylmethyl)-1H-1,2,4-triazol-5-amine]
100 to 1000 nM | COc1ccccc1C(=O)n1nc(-c2ccccn2)cc1NCc1ccsc1 [Cmpd 118, 1-[(2-methoxyphenyl)carbonyl]-3-(pyridin-2-yl)-N-(thiophen-3-ylmethyl)-1H-pyrazol-5-amine]
> 1000 nM | COc1ccccc1C(=O)n1nc(-c2ccccn2)nc1NCc1cccc2ccccc12 [Cmpd 119, 1-[(2-methoxyphenyl)carbonyl]-N-(naphthalen-1-ylmethyl)-3-(pyridin-2-yl)-1H-1,2,4-triazol-5-amine]
> 1000 nM | COc1ccccc1C(=O)n1nc(-c2ccccn2)nc1NCc1ccc2ccccc2c1 [Cmpd 120, 1-[(2-methoxyphenyl)carbonyl]-N-(naphthalen-2-ylmethyl)-3-(pyridin-2-yl)-1H-1,2,4-triazol-5-amine]
< 100 nM | O=C(c1ccc(Cl)cc1)n1nc(-c2ccccn2)nc1NCc1ccc(F)cc1 [Cmpd 121, 1-[(4-chlorophenyl)carbonyl]-N-[(4-fluorophenyl)methyl]-3-(pyridin-2-yl)-1H-1,2,4-triazol-5-amine]
100 to 1000 nM | O=C(c1ccc(Cl)cc1)n1nc(-c2ccncc2)nc1NCc1ccc(F)cc1 [Cmpd 122, 1-[(4-chlorophenyl)carbonyl]-N-[(4-fluorophenyl)methyl]-3-(pyridin-4-yl)-1H-1,2,4-triazol-5-amine]
